Data from patent US6235509A (priority 1996, dated 2001).

Tested on: chymotrypsin
Type: biochemical
Conditions: pH 8.0

How did the “kinetics of the inhibition of chymotrypsin by AEBSF” value turn out when `Oc1cccnc1` [3-hydroxypyridine] was run?
Its value is “not changed”.
